Laboratory results reported in ChEMBL document CHEMBL1136842, “5-Nitrofuran-2-yl derivatives: synthesis and inhibitory activities against growing and dormant mycobacterium species” (Bioorg Med Chem Lett, 2009).
In brackets after ≈: the same amount, converted by molar mass.

These molecules were tested on Mycobacterium tuberculosis variant microti (assay: Antimycobacterial activity against Mycobacterium microti MTCC 1727 by agar dilution method).
Format: functional

Row | SMILES | MIC [µM]
1 | CCc1cccc(CC)c1NC(=S)N/N=C/c1ccc([N+](=O)[O-])o1 | 72.1 (≈ 25 µg/mL)
2 | O=[N+]([O-])c1ccc(/C=N/NC(=S)Nc2ccccc2Br)o1 | 67.1 (≈ 24.8 µg/mL)
3 | Cc1cc(C)nc(NC(=S)N/N=C/c2ccc([N+](=O)[O-])o2)c1 | 39.1 (≈ 12.5 µg/mL)
4 | Cc1cccc(C)c1NC(=S)N/N=C/c1ccc([N+](=O)[O-])o1 | 78.5 (≈ 25 µg/mL)
5 | Cc1ccc(C)c(NC(=S)N/N=C/c2ccc([N+](=O)[O-])o2)c1 | 157 (≈ 50 µg/mL)
6 | O=[N+]([O-])c1ccc(/C=N/NC(=S)Nc2ccccc2)o1 | 86.1 (≈ 25 µg/mL)
7 | Cc1ccc(NC(=S)N/N=C/c2ccc([N+](=O)[O-])o2)c(C)c1 | 78.5 (≈ 25 µg/mL)
8 | O=[N+]([O-])c1ccc(/C=N/NC(=S)Nc2ncc(Br)cc2Br)o1 | 6.9 (≈ 3.1 µg/mL)
9 | Cc1ccnc(NC(=S)N/N=C/c2ccc([N+](=O)[O-])o2)c1 | 20.5 (≈ 6.26 µg/mL)
10 | COc1ccc(NC(=S)N/N=C/c2ccc([N+](=O)[O-])o2)c(OC)c1 | 17.8 (≈ 6.24 µg/mL)
11 | O=[N+]([O-])c1ccc(/C=N/NC(=S)Nc2ccccn2)o1 | 48.4 (≈ 14.1 µg/mL)
12 | NS(=O)(=O)c1ccc(NC(=S)N/N=C/c2ccc([N+](=O)[O-])o2)cc1 | 67.6 (≈ 25 µg/mL)
13 | Cc1cccnc1NC(=S)N/N=C/c1ccc([N+](=O)[O-])o1 | 10.2 (≈ 3.11 µg/mL)
14 | COc1ccc(NC(=S)N/N=C/c2ccc([N+](=O)[O-])o2)cc1 | 78 (≈ 25 µg/mL)
15 | O=[N+]([O-])c1ccc(/C=N/NC(=S)Nc2ccc(Cl)cn2)o1 | 38.3 (≈ 12.5 µg/mL)
16 | O=C(O)c1cn(C2CC2)c2cc(N3CCNCC3)c(F)cc2c1=O [CIPROFLOXACIN] | 2.35 (≈ 0.779 µg/mL)
17 | NNC(=O)c1ccncc1 [ISONIAZID] | 22.8 (≈ 3.13 µg/mL)
18 | Cc1ccc(NC(=S)N/N=C/c2ccc([N+](=O)[O-])o2)cc1 | 20.5 (≈ 6.24 µg/mL)
19 | CO[C@H]1/C=C/O[C@@]2(C)Oc3c(C)c(O)c4c(O)c(c(/C=N/N5CCN(C)CC5)c(O)c4c3C2=O)NC(=O)/C(C)=C\C=C\[C@H](C)[C@H](O)[C@@H](C)[C@@H](O)[C@@H](C)[C@H](OC(C)=O)[C@@H]1C [RIFAMPIN] | 30.4 (≈ 25 µg/mL)
20 | O=[N+]([O-])c1ccc(/C=N/NC(=S)Nc2ccc(Cl)cc2)o1 | 38.4 (≈ 12.5 µg/mL)
